Source: patent US20210330594A1, “Fast-Acting Soft Gelatin Capsules Containing A Mixture Of Pain Reliever/Fever Reducer, Diuretic And Antihistamine” (PuraCap Pharmaceutical LLC, priority 2018, published 2021)
Structures can show the parent of a compound that is named as a salt.

Assay: Stability determination of softgels under accelerated conditions (API assay)
Format: physicochemical
Conditions: for T0 % of label: softgel of Example 1, initial (T0) API assay; for Assay % of label 40° C./75% RH 1 M / Assay % of label 40° C./75% RH 2 M / Assay % of label 40° C./75% RH 3 M: softgel, accelerated conditions 40° C./75% RH
Procedure: Manufactured softgels are evaluated to predict shelf life of the product. Softgel samples are kept under accelerated conditions (ACC) of 40° C./75% RH for 180 days. Samples are withdrawn and tested at predetermined periods for API assay and homogeneity. Results are compared against the label specification; if ACC-6M results (i.e., at 6 months) are within specification then a product shelf life of 2 years is predicted.

T0 % of label | Assay % of label 40° C./75% RH 1 M | Assay % of label 40° C./75% RH 2 M | Assay % of label 40° C./75% RH 3 M | Compound
94.2 % of label | 94.0 % of label | 94.1 % of label | 92.2 % of label | CC(=O)Nc1ccc(O)cc1 [Acetaminophen]
95.5 % of label | 95.1 % of label | 95.0 % of label | 93.4 % of label | Cn1c(=O)c2[nH]c(Br)nc2n(C)c1=O [Pamabrom]
94.3 % of label | 94.0 % of label | 94.2 % of label | 93.9 % of label | COc1ccc(CN(CCN(C)C)c2ccccn2)cc1 [Pyrilamine Maleate]
